Data taken from US9309225B2, “N-((1-benzyl-1H-1,2,3-triazol-4-yl)methyl)arylamide compounds as potential anticancer agents and a process for the preparation thereof” (COUNCIL OF SCIENTIFIC & INDUSTRIAL RESEARCH, priority 2013, dated 2016).

How the values were obtained:
Format in all cases: cell-based
[1] = tested on: CCRF-CEM; assay: NCI sixty human tumor cell line screen, Leukemia panel; conditions: NCI protocol
Protocol: (§1) The in vitro anticancer activity studies for these N-((1-benzyl-1H-1,2,3-triazol-4-yl)methyl) arylamide analogues were carried out at the National Cancer Institute, USA.
(§2) The N-((1-benzyl-1H-1,2,3-triazol-4-yl)methyl)arylamide analogues have been tested at NCI, USA, against sixty human tumor cell lines derived from nine cancer types (leukemia, non-small cell lung cancer, colon cancer, CNS cancer, melanoma cancer, ovarian cancer, renal cancer, prostate cancer and breast cancer). For these compounds results are expressed as growth inhibition (GI50) values as per NCI protocol.

[2] = tested on: K-562; assay: as above; conditions: K562, K-562, Leukemia, NCI protocol
Protocol: as §1, §2

[3] = tested on: MOLT-4; assay: as above; conditions: MOLT-4, Leukemia, NCI protocol
Protocol: as §1, §2

[4] = tested on: RPMI-8226; assay: as above; conditions: RPMI-8226, Leukemia, NCI protocol
Protocol: as §1, §2

[5] = tested on: SR; assay: as above; conditions: NCI protocol
Protocol: as §1, §2

[6] = tested on: NCI-H23; assay: NCI sixty human tumor cell line screen, Non-small-cell-lung panel; conditions: NCI protocol
Protocol: as §1, §2

[7] = tested on: HCC-2998; assay: NCI sixty human tumor cell line screen, Colon panel; conditions: HCC-2998, Colon, NCI protocol
Protocol: as §1, §2

[8] = tested on: HCT-15; assay: as above; conditions: HCT-15, Colon, NCI protocol
Protocol: as §1, §2

[9] = tested on: UACC-257; assay: NCI sixty human tumor cell line screen, Melanoma panel; conditions: UACC-257, Melanoma, NCI protocol
Protocol: as §1, §2

[10] = tested on: IGROV1; assay: NCI sixty human tumor cell line screen, Ovarian panel; conditions: IGROV-1, NCI protocol
Protocol: as §1, §2

[11] = tested on: 786-0; assay: NCI sixty human tumor cell line screen, Renal panel; conditions: 786-0, Renal, NCI protocol
Protocol: as §1, §2

[12] = tested on: HS 578T; assay: NCI sixty human tumor cell line screen, Breast panel; conditions: NCI protocol
Protocol: as §1, §2

[13] = tested on: A549; assay: IC50 of compounds and E7010 against A549 cell line
Source text: (§3) In the present investigation, an attempt has been made, in view of the biological importance of both 2-anilino nicotinyl structure and 1,2,3-triazoles group. […] Introduction of triazole group on 2-anilino nicotinyl moiety resulted that there is enhancement of biological activity of representative compounds (1a, 1b, 1c, 1d, 1f, 1g, 1i, 1k, 6b and 6g) compare with E7010. Biological data of representative compounds has been provided in Table 1. • (Novel sulfonamides as potential, systemically active antitumor agents. Yoshino, H.; Ueda, N.; Niijima, J.; Sugumi, H.; Kotake, Y.; Koyanagi, N.; Yoshimatsu, K.; Asada, M.; Watanabe, T.; Nagasu, T. J. Med. Chem. 1992, 35, 2496-2497)

[14] = tested on: HOP-92; assay: NCI sixty human tumor cell line screen, Non-small-cell-lung panel; conditions: HOP-92, Non-small-cell-lung, NCI protocol
Protocol: as §1, §2

[15] = tested on: NCI-H322M; assay: as above; conditions: NCI protocol
Protocol: as §1, §2

[16] = tested on: MALME-3M; assay: NCI sixty human tumor cell line screen, Melanoma panel; conditions: NCI protocol
Protocol: as §1, §2

[17] = tested on: OVCAR-5; assay: NCI sixty human tumor cell line screen, Ovarian panel; conditions: OVCAR-5, Ovarian, NCI protocol
Protocol: as §1, §2

[18] = tested on: MCF7; assay: NCI sixty human tumor cell line screen, Breast panel; conditions: NCI protocol
Protocol: as §1, §2

[19] = tested on: MCF-7; assay: IC50 of compounds and E7010 against MCF-7 cell line
Source text: as §3

[20] = Homo sapiens, A549, A549 cell line
[21] = Homo sapiens, MCF7, MCF-7 cell line

SMILES	GI50 [1]	GI50 [2]	GI50 [3]	GI50 [4]	GI50 [5]	GI50 [6]	GI50 [7]	GI50 [8]	GI50 [9]	GI50 [10]	GI50 [11]	GI50 [12]	IC50 ([13]; A549 cell line)	IC50 [13, 20]	GI50 [14]	GI50 [15]	GI50 [16]	GI50 [17]	GI50 [18]	IC50 [19, 21]	further results
O=C(NCc1cn(Cc2cccc(Oc3ccccc3)c2)nn1)c1cccnc1Nc1ccccc1 [Compound 1a, N-((1-(3-Phenoxybenzyl)-1H-1,2,3-triazol-4-yl)methyl)-2-(phenylamino)nicotinamide]	3.34 µM	3.69 µM	3.74 µM	3.61 µM	2.56 µM	3.73 µM	3.7 µM	3.81 µM	1.42 µM	30.7 µM	23.2 µM	30.9 µM	1.54 µM	1.25 to 3.98 µM	–	–	–	–	–	–	–
O=C(NCc1cn(Cc2cccc(Oc3ccccc3)c2)nn1)c1cccnc1Nc1ccc(F)cc1 [Compound 1b, 2-(4-Fluorophenylamino)-N-((1-(3-phenoxybenzyl)-1H-1,2,3-triazol4-yl)methyl)nicotinamide]	–	–	–	–	–	29.9 µM	–	–	6.87 µM	5.89 µM	5.59 µM	5.9 µM	1.69 µM	1.25 to 3.98 µM	10.7 µM	5.29 µM	15.1 µM	4.23 µM	–	–	–
COc1ccc(Nc2ncccc2C(=O)NCc2cn(Cc3cccc(Oc4ccccc4)c3)nn2)cc1 [Compound 1e, 2-(4-Methoxyphenylamino)-N-((1-(3-phenoxybenzyl)-1H-1,2,3-triazol-4-yl)methyl) nicotinamide]	3.8 µM	3.48 µM	2.91 µM	4.84 µM	–	3.45 µM	2.53 µM	3.93 µM	4.82 µM	–	6.73 µM	–	–	–	5.67 µM	5.24 µM	3.8 µM	≥ 100 µM	–	–	–
COc1ccc(Nc2ncccc2C(=O)NCc2cn(Cc3cccc(Oc4ccccc4)c3)nn2)c(OC)c1 [Compound 1g, 2-(2,4-Dimethoxyphenylamino)-N-((1-(3-phenoxybenzyl)-1H-1,2,3-triazol-4-yl)methyl) nicotinamide]	1.2 µM	0.75 µM	3.65 µM	3.03 µM	–	2.24 µM	3.33 µM	2.89 µM	–	5.96 µM	4.06 µM	2.94 µM	1.57 µM	1.25 to 3.98 µM	–	–	4.07 µM	8.34 µM	0.65 µM	0.74 to 2.51 µM	IC50 ([19]; MCF-7 cell line): 0.74 µM
COc1cc(Nc2ncccc2C(=O)NCc2cn(Cc3cccc(Oc4ccccc4)c3)nn2)cc(OC)c1 [Compound 1i, 2-(3,5-Dimethoxyphenylamino)-N-((1-(3-phenoxybenzyl)-1H-1,2,3-triazol-4-yl)methyl) nicotinamide]	4.19 µM	5.05 µM	4.85 µM	5.25 µM	–	6.22 µM	9.6 µM	3.89 µM	4.86 µM	–	6.73 µM	–	1.93 µM	1.25 to 3.98 µM	4.67 µM	6.15 µM	5.81 µM	≥ 100 µM	–	0.74 to 2.51 µM	IC50 ([19]; MCF-7 cell line): 0.93 µM
O=C(NCc1cn(Cc2cccc(Oc3ccccc3)c2)nn1)c1cccnc1NCc1ccc(Cl)cc1 [Compound 1k, 2-(4-Chlorobenzylamino)-N-((1-(3-phenoxybenzyl)-1H-1,2,3-triazol-4-yl)methyl) nicotinamide]	3.05 µM	3.24 µM	3.28 µM	3.12 µM	3.31 µM	–	4.17 µM	3.39 µM	3.83 µM	9.03 µM	–	2.72 µM	1.79 µM	1.25 to 3.98 µM	4.23 µM	–	5.69 µM	5.62 µM	2.99 µM	–	–
